# Laboratory results reported in patent US8026365B2, “4,4-disubstituted piperidine derivatives” (Hoffman-La Roche Inc., priority 2007, dated 2011).
# Biological target: T1, human subtype 5 somatostatin receptor (SSTR5) (Homo sapiens, UniProt P35346)
# T1 construct: host or cells: CHO cell line, stably transfected; membranes prepared by sonication and centrifugation
# Experiment: radioligand replacement (binding) assay, 125I-labeled 11-Tyr somatostatin-14, membranes of CHO cells expressing SSTR5
# Details: membranes of CHO cells stably transfected with human SSTR5; 0.05 nM 125I tracer; Ki calculated from IC50 by Cheng-Prussoff equation
# Method: A CHO cell line stably transfected with a plasmid encoding the human subtype 5 somatostatin receptor (GenBank accession number D16827) was obtained from Euroscreen. Cells were cultured and used for binding and functional assays.
# Membranes of these cells were prepared by sonication in the presence of protease inhibitors and subsequent fractionating centrifugation. The protein concentration in the membrane preparation was determined using a commercial kit (BCA kit, Pierce, USA). Membranes were stored at −80° C. until use. After thawing membranes were diluted in assay buffer (50 mM Tris-HCl at pH 7.4, 5 mM MgCl2 and 0.20% BSA) and subjected to dounce homogenization.
# For binding studies, 0.1 mL membrane suspension, corresponding to approximately 6×10^−15 mol receptor, was incubated for 1 h at room temperature with 0.05 nM ^125I-labeled tracer (11-Tyr somatostatin-14, Perkin-Elmer) and either test compounds in varying concentrations or, for the determination of non-specific binding, 0.001 mM non-labeled somatostatin-14. The incubation was stopped by filtration through GF/B glassfiber filters and washing with ice-cold wash buffer (50 mM Tris-HCl at pH 7.4). The bound radioactivity was measured after application of a scintillation cocktail (Microscint 40) and expressed as disintegrations per minute (dpm).
# The receptor concentration was determined in a prior saturation experiment where a fixed, arbitrary amount of membranes was incubated with a concentration range of radio-labeled tracer. This allows estimating the total number of specific binding sites per amount of protein (i.e., Bmax), typically between 1 and 5 pmol/mg.
# The concentration of the test compound required to result in half maximal inhibition of binding of the radio-labeled tracer (IC50) was estimated from a concentration-versus-dpm graph. The binding affinity (Ki) was calculated from the IC50 by applying the Cheng-Prussoff equation for single binding sites.
# T1 sequence (P35346 whole entry): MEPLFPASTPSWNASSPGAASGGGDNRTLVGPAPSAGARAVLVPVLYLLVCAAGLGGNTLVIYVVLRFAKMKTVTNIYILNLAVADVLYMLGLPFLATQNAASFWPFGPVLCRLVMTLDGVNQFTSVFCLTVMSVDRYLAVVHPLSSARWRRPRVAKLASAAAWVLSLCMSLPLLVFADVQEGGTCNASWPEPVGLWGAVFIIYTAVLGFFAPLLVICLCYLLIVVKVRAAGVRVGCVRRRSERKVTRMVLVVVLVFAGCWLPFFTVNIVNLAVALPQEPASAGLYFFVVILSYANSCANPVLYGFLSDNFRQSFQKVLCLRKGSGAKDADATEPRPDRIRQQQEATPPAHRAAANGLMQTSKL
row,Structure (SMILES),Ki [µM]
1,"CCOc1cc(CN2CCC3(CC2)NC(=O)NC3=O)ccc1Cl [Example 2, 8-(4-chloro-3-ethoxy-benzyl)-1,3,8-triaza-spiro[4.5]decane-2,4-dione]",0.051
2,"CCOc1cc(CN2CCC3(CC2)NC(=O)NC3=O)cc(OCC)c1Cl [Example 5, 8-(4-chloro-3,5-diethoxy-benzyl)-1,3,8-triaza-spiro[4.5]decane-2,4-dione]",0.042
3,"CCOc1cc(CN2CCC3(CC2)NC(=O)NC3=O)cc(OCC)c1-n1cccc1 [Example 7, 8-(3,5-diethoxy-4-pyrrol-1-yl-benzyl)-1,3,8-triaza-spiro[4.5]decane-2,4-dione]",0.015
4,"CCOc1cc(CN2CCC3(CC2)CCN(c2ccccc2)C3=O)cc(OCC)c1Cl [Example 11, 8-(4-chloro-3,5-diethoxy-benzyl)-2-phenyl-2,8-diaza-spiro[4.5]decan-1-one]",0.228
5,"CCOc1cc(CN2CCC3(CC2)N=C(c2ccccc2)NC3=O)ccc1C [Example 15, 8-(3-ethoxy-4-methyl-benzyl)-2-phenyl-1,3,8-triaza-spiro[4.5]dec-1-en-4-one]",0.037
6,"CCOc1cc(CN2CCC3(CC2)N=C(c2ccccc2)NC3=O)ccc1Cl [Example 17, 8-(4-chloro-3-ethoxy-benzyl)-2-phenyl-1,3,8-triaza-spiro[4.5]dec-1-en-4-one]",0.05
7,"CCOc1cc(CN2CCC3(CC2)N=C(c2ccccc2)NC3=O)ccc1OC(F)F [Example 26, 8-(4-difluoromethoxy-3-ethoxy-benzyl)-2-phenyl-1,3,8-triaza-spiro[4.5]dec-1-en-4-one]",0.226
8,"COc1ccc(CN2CCC3(CC2)N=C(c2ccccc2)NC3=O)cc1OCCF [Example 29, 8-[3-(2-fluoro-ethoxy)-4-methoxy-benzyl]-2-phenyl-1,3,8-triaza-spiro[4.5]dec-1-en-4-one]",0.717
9,"COc1ccc(CN2CCC3(CC2)N=C(c2ccccc2)NC3=O)cc1OC1CCCC1 [Example 33, 8-(3-cyclopentyloxy-4-methoxy-benzyl)-2-phenyl-1,3,8-triaza-spiro[4.5]dec-1-en-4-one]",0.273
10,"CCOc1cc(CN2CCC3(CC2)N=C(c2ccccc2)NC3=O)cc(OCC)c1Br [Example 38, 8-(4-bromo-3,5-diethoxy-benzyl)-2-phenyl-1,3,8-triaza-spiro[4.5]dec-1-en-4-one]",0.018
11,"CCOc1cc(CN2CCC(NC(=O)c3ccc(Cl)cc3)(C(N)=O)CC2)cc(OCC)c1Cl [Example 42, 4-(4-chloro-benzoylamino)-1-(4-chloro-3,5-diethoxy-benzyl)-piperidine-4-carboxylic acid amide]",0.096
12,"CCOc1cc(CN2CCC(C#N)(NC(=O)c3cncc(C)c3)CC2)cc(OCC)c1F [Example 44, N-[4-cyano-1-(3,5-diethoxy-4-fluoro-benzyl)-piperidin-4-yl]-5-methyl-nicotinamide]",0.342
13,"CCOc1cc(CN2CCC(C#N)(NC(=O)c3ccc(Cl)nc3)CC2)cc(OCC)c1-c1ccc(F)cc1 [Example 46, 6-chloro-N-[4-cyano-1-(2,6-diethoxy-4′-fluoro-biphenyl-4-ylmethyl)-piperidin-4-yl]-nicotinamide]",0.066
